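Compound exposure: 48 hours, 5 concentrations, 96-well plates. GI50 = concentration required for 50% inhibition of growth. The concentration for full growth arrest is given as TGI.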
Experiments:
Assay in all cases: DTP human tumour cell line panel, 48 h
[1] = system: OVCAR-5 ovarian
[2] = system: EKVX NSCLC
[3] = system: M14 melanoma
[4] = system: RXF 393 renal
[5] = system: HOP-92 NSCLC
[6] = system: SK-MEL-28 melanoma
[7] = system: SNB-19 CNS
[8] = system: OVCAR-3 ovarian
[9] = system: K-562 leukemia
[10] = system: SF-268 CNS
[11] = system: SW-620 colon
[12] = system: LOX IMVI melanoma
[13] = system: SF-539 CNS
[14] = system: NCI-H23 lung
[15] = system: OVCAR-4 ovarian
[16] = system: HOP-62 NSCLC
[17] = system: A549 NSCLC
[18] = system: CCRF-CEM leukemia
[19] = system: UACC-62 melanoma
[20] = system: IGROV1 ovarian
[21] = system: PC-3 prostate
[22] = system: 786-0 renal
[23] = system: HCT-15 colon
[24] = system: CAKI-1 renal
[25] = system: MDA-MB-435
[26] = system: HS 578T breast
[27] = system: SNB-75 CNS
[28] = system: U251 CNS
[29] = system: NCI/ADR-RES ovarian
[30] = system: SN12C renal
[31] = system: HCT-116 colon
[32] = system: KM12 colon
[33] = system: SK-OV-3 ovarian
[34] = system: MOLT-4 leukemia
[35] = system: BT-549 breast
[36] = system: TK-10 renal
[37] = system: ACHN renal
[38] = system: UO-31 renal
[39] = system: T-47D breast
[40] = system: SK-MEL-2 melanoma
[41] = system: UACC-257 melanoma
[42] = system: NCI-H226 lung
[43] = system: SK-MEL-5 melanoma
[44] = system: COLO 205 colon
[45] = system: OVCAR-8 ovarian
[46] = system: HL-60(TB) leukemia
[47] = system: A498 renal
[48] = system: NCI-H460 lung
[49] = system: MDA-MB-231 breast
[50] = system: HCC-2998 colon
[51] = system: SF-295 CNS
[52] = system: DU-145 prostate
[53] = system: MCF7 breast

Work on O=C(Nc1ccc(-n2cc(-c3ccncc3)c(-c3ccc(Cl)c(O)c3)n2)cc1)Nc1ccc(Cl)c(C(F)(F)F)c1 yielded a GI50 [1] of 3300 nM, a TGI [1] of 8980 nM and a GI50 [2] of 3050 nM. It also gave a TGI [2] of 14600 nM, a GI50 [3] of 1430 nM and a TGI [3] of 3110 nM. It also gave a GI50 [4] of 755 nM, a TGI [4] of 2310 nM and a GI50 [5] of 1570 nM. For the same compound, the TGI [5] was 4210 nM, the GI50 [6] was 1630 nM and the TGI [6] was 3450 nM. It also gave a GI50 [7] of 1720 nM, a TGI [7] of 4700 nM and a GI50 [8] of 1480 nM. It also gave a TGI [8] of 3110 nM, a GI50 [9] of 1890 nM and a TGI [9] of 7370 nM. The GI50 [10] was 1650 nM, the TGI [10] was 3870 nM and the GI50 [11] was 2480 nM. It also gave a TGI [11] of 5040 nM, a GI50 [12] of 1440 nM and a TGI [12] of 2750 nM. The GI50 [13] was 1310 nM, the TGI [13] was 3480 nM and the GI50 [14] was 1670 nM. The TGI [14] was 3430 nM, the GI50 [15] was 639 nM and the TGI [15] was 6120 nM. The GI50 [16] was 1680 nM, the TGI [16] was 3180 nM and the GI50 [17] was 2210 nM. For the same compound, the TGI [17] was 5960 nM, the GI50 [18] was 1530 nM and the TGI [18] was 8790 nM. For the same compound, the GI50 [19] was 1700 nM, the TGI [19] was 3440 nM and the GI50 [20] was 2290 nM. The TGI [20] was 4960 nM, the GI50 [21] was 1860 nM and the TGI [21] was 9630 nM. The GI50 [22] was 1220 nM, the TGI [22] was 3110 nM and the GI50 [23] was 1310 nM. For the same compound, the TGI [23] was 2950 nM, the GI50 [24] was 3010 nM and the TGI [24] was 15300 nM. The GI50 [25] was 1320 nM, the TGI [25] was 2910 nM and the GI50 [26] was 1390 nM. For the same compound, the TGI [26] was 4430 nM, the GI50 [27] was 363 nM and the TGI [27] was 2140 nM. For the same compound, the GI50 [28] was 1080 nM, the TGI [28] was 2320 nM and the GI50 [29] was 1880 nM. It also gave a TGI [29] of 4830 nM, a GI50 [30] of 1590 nM and a TGI [30] of 3860 nM. It also gave a GI50 [31] of 1290 nM, a TGI [31] of 2720 nM and a GI50 [32] of 1470 nM. For the same compound, the TGI [32] was 3010 nM, the GI50 [33] was 2020 nM and the TGI [33] was 4690 nM. The GI50 [34] was 1140 nM, the TGI [34] was 6770 nM and the GI50 [35] was 1200 nM. It also gave a TGI [35] of 2790 nM, a GI50 [36] of 3640 nM and a TGI [36] of 15100 nM. For the same compound, the GI50 [37] was 1780 nM, the TGI [37] was 4940 nM and the GI50 [38] was 1660 nM. For the same compound, the TGI [38] was 3600 nM, the GI50 [39] was 2390 nM and the TGI [39] was 6540 nM. The GI50 [40] was 1700 nM, the TGI [40] was 3270 nM and the GI50 [41] was 1510 nM. The TGI [41] was 3400 nM, the GI50 [42] was 2760 nM and the TGI [42] was 10800 nM. It also gave a GI50 [43] of 1530 nM, a TGI [43] of 2950 nM and a GI50 [44] of 1680 nM. The TGI [44] was 3700 nM, the GI50 [45] was 1770 nM and the TGI [45] was 4800 nM. It also gave a GI50 [46] of 2420 nM, a TGI [46] of 7460 nM and a GI50 [47] of 1630 nM. It also gave a TGI [47] of 9290 nM, a GI50 [48] of 1700 nM and a TGI [48] of 3400 nM. It also gave a GI50 [49] of 1660 nM, a TGI [49] of 3310 nM and a GI50 [50] of 1780 nM. The TGI [50] was 3250 nM, the GI50 [51] was 1260 nM and the TGI [51] was 2860 nM. For the same compound, the GI50 [52] was 1840 nM, the TGI [52] was 3850 nM and the GI50 [53] was 2120 nM. It also gave a TGI [53] of 5650 nM.

— PubChem BioAssay (NCI)
